Among the test systems are 786-0 renal; A498 renal; A549 NSCLC; CCRF-CEM leukemia; HL-60(TB) leukemia; IGROV1 ovarian; KM12 colon; MALME-3M melanoma; NCI-H226 lung; NCI-H460 lung; OVCAR-5 ovarian; OVCAR-8 ovarian; SF-539 CNS; SK-MEL-28 melanoma; SN12C renal.
Holding throughout (experiment): DTP human tumour cell line panel, 48 h

SMILES strings stand for the structures.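 Values below derive from 48-hour exposures of cells grown in 96-well plates, with endpoints linearly interpolated between the two concentrations bracketing the appropriate inhibition level. TGI: total growth inhibition.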

Take `O=C(O)Cc1ccc2c(c1O)C(=O)c1c(ccc(CC(=O)O)c1O)C2=O`: the TGI with 786-0 renal, in the assay with A498 renal, in the assay with A549 NSCLC, in the assay with CCRF-CEM leukemia, with HL-60(TB) leukemia and with IGROV1 ovarian was greater than 100 µM each time. Moreover, the TGI with KM12 colon, with MALME-3M melanoma, with NCI-H226 lung, with NCI-H460 lung, in the assay with OVCAR-5 ovarian and in the assay with OVCAR-8 ovarian was greater than 100 µM each time. The TGI in the assay with SF-539 CNS, in the assay with SK-MEL-28 melanoma and in the assay with SN12C renal was greater than 100 µM in each case.
For `CCCOCN1COCN=C1NC#N`, the TGI (commonly the concentration at which net growth stops) is 45.1 µM in the assay on 786-0 renal; greater than 100 µM in the assay with A498 renal; greater than 100 µM in the assay with A549 NSCLC; greater than 100 µM in the assay on HL-60(TB) leukemia; greater than 100 µM with IGROV1 ovarian; greater than 100 µM in the assay on KM12 colon. The TGI with MALME-3M melanoma, in the assay on NCI-H226 lung, with NCI-H460 lung, in the assay with OVCAR-5 ovarian, in the assay with OVCAR-8 ovarian and with SF-539 CNS was greater than 100 µM in each case. Besides, the TGI in the assay with SK-MEL-28 melanoma and in the assay on SN12C renal was greater than 100 µM throughout.
Regarding `CCCCCn1cnc2c1S(=O)(=O)N(C)C(NC(=O)c1ccccc1)=N2`, the TGI with 786-0 renal, in the assay on A498 renal, in the assay with A549 NSCLC, with CCRF-CEM leukemia, in the assay with HL-60(TB) leukemia and in the assay on IGROV1 ovarian was greater than 100 µM in each case. In addition, the TGI in the assay with KM12 colon, in the assay on NCI-H226 lung, with NCI-H460 lung, in the assay on OVCAR-8 ovarian, in the assay on SF-539 CNS and in the assay with SK-MEL-28 melanoma was greater than 100 µM each time. In the assay on SN12C renal, this molecule showed a TGI greater than 100 µM.
On to `COc1ccc(/C(Cl)=C/c2ccc(Cl)c(Cl)c2)cc1`, for which the TGI in the assay with 786-0 renal is greater than 100 µM; in the assay on A498 renal it was 72.8 µM; with A549 NSCLC it was 83.6 µM; in the assay on CCRF-CEM leukemia, 47.8 µM; with HL-60(TB) leukemia, 44.9 µM; in the assay with IGROV1 ovarian, greater than 100 µM. Further, the concentration for total growth inhibition (TGI) is 56.8 µM with MALME-3M melanoma; 53.2 µM in the assay on NCI-H226 lung; greater than 100 µM with OVCAR-8 ovarian; greater than 100 µM in the assay on SF-539 CNS; greater than 100 µM in the assay with SK-MEL-28 melanoma; greater than 100 µM in the assay on SN12C renal.
On to `O=C(Nc1cc(Cl)c(Cl)cc1Cl)C(=O)C(C(=O)c1ccc2ccccc2c1)C1OC(=O)c2ccccc21` (stereo unspecified), for which the TGI is 20.9 µM with 786-0 renal; 25.8 µM with A498 renal; 81.5 µM in the assay on A549 NSCLC; 88.1 µM with HL-60(TB) leukemia; 44.7 µM in the assay on IGROV1 ovarian; 31.2 µM with KM12 colon. Further, the concentration for total growth inhibition (TGI) was found to be 30.9 µM in the assay on MALME-3M melanoma; 7.13 µM in the assay with NCI-H226 lung; 25.9 µM with NCI-H460 lung; 31.9 µM in the assay on OVCAR-5 ovarian; 23.6 µM with OVCAR-8 ovarian; 13 µM in the assay on SF-539 CNS. Also, the TGI worked out at 22.1 µM with SK-MEL-28 melanoma and 42.5 µM with SN12C renal.
For `CCCCCC(=O)Cc1cc(OC)cc2c1C(=O)Oc1cc(O)c(C(=O)O)c(CC(=O)CCCCC)c1O2`, the TGI in the assay on 786-0 renal is 37.7 µM; with A498 renal, greater than 100 µM; with A549 NSCLC, greater than 100 µM; in the assay with CCRF-CEM leukemia, greater than 100 µM; in the assay on HL-60(TB) leukemia, greater than 100 µM; with IGROV1 ovarian, greater than 100 µM. Moreover, the TGI in the assay with KM12 colon, in the assay on MALME-3M melanoma, in the assay on NCI-H226 lung, in the assay on NCI-H460 lung, in the assay on OVCAR-5 ovarian and in the assay with OVCAR-8 ovarian was greater than 100 µM in each case.
With `Cn1c(N)c(-c2c3ccccc3nc3ccccc23)c(=O)n(C)c1=O`, the TGI in the assay with 786-0 renal, with A498 renal, with A549 NSCLC, with CCRF-CEM leukemia, with HL-60(TB) leukemia and in the assay with IGROV1 ovarian was greater than 100 µM throughout. The TGI in the assay with KM12 colon, with MALME-3M melanoma, in the assay on OVCAR-5 ovarian, with OVCAR-8 ovarian, in the assay with SF-539 CNS and in the assay with SK-MEL-28 melanoma was greater than 100 µM throughout. Moreover, in the assay with SN12C renal, the TGI is greater than 100 µM.
In the case of `CO[C@H](c1ccccc1)[C@H](C)N(C)c1ccc2ccccc2c1C1=NC(C)(C)CO1`, the TGI was 30.1 µM in the assay on 786-0 renal; 35.2 µM in the assay on A549 NSCLC; 48.9 µM in the assay with CCRF-CEM leukemia; 61.3 µM with HL-60(TB) leukemia; greater than 100 µM in the assay with IGROV1 ovarian; 40.2 µM in the assay on KM12 colon. Further, the total growth inhibition concentration (TGI) in the assay on MALME-3M melanoma is 33 µM; with NCI-H226 lung, 34.8 µM; in the assay with NCI-H460 lung it was 33 µM; in the assay with OVCAR-8 ovarian, 26.7 µM; with SF-539 CNS, 29.9 µM; in the assay on SK-MEL-28 melanoma, 34 µM. For the same molecule, the TGI in the assay on SN12C renal turned out to be 33.2 µM.
As for `C[N+](C)(Cc1ccc(NC(=O)CCCC(=O)ON2C(=O)CCC2=O)cc1)c1ccccc1`, the TGI was greater than 100 µM in the assay with 786-0 renal; greater than 100 µM in the assay with A498 renal; 2.08 µM in the assay on A549 NSCLC; greater than 100 µM in the assay with CCRF-CEM leukemia; greater than 100 µM with HL-60(TB) leukemia; greater than 100 µM in the assay with KM12 colon. Moreover, the TGI in the assay on MALME-3M melanoma was less than 0.01 µM; with NCI-H226 lung, 0.0133 µM; with OVCAR-5 ovarian it was less than 0.01 µM; with OVCAR-8 ovarian it was greater than 100 µM; with SF-539 CNS it was less than 0.01 µM; in the assay on SK-MEL-28 melanoma, less than 0.01 µM. The TGI in the assay on SN12C renal is greater than 100 µM.
For the molecule `COCC12CC(CC1=O)C1C2ON2c3ccccc3C(=O)C12c1ccccc1` (stereo unspecified), the TGI in the assay on 786-0 renal, in the assay with A498 renal, with A549 NSCLC, with CCRF-CEM leukemia, with HL-60(TB) leukemia and with IGROV1 ovarian was greater than 100 µM throughout. Moreover, the TGI in the assay with MALME-3M melanoma, in the assay on NCI-H226 lung, in the assay on OVCAR-8 ovarian, in the assay on SF-539 CNS, with SK-MEL-28 melanoma and in the assay with SN12C renal was greater than 100 µM throughout.

These data come from PubChem BioAssay (NCI).
